Legend:
Mus musculus [1] = species on record: Mus musculus; test: Effective dose required for inhibition of pentylenetetrazole (PTZ)-induced seizures in mice perorally; format: functional; details: po
Mus musculus [2] = test: Effective dose required for inhibition of pentylenetetrazole (PTZ)-induced seizures in mice intraperitoneally; format: functional; details: ip
[3] = molecular target: GABA-A receptor; anion channel; test: In vitro affinity for BZD site on GABA-A receptor from rat cerebral cortex using radioligand [3H]flunitrazepam; format: tissue-based
Rattus norvegicus [4] = species on record: Rattus norvegicus; test: Minimum effective dose required for anticonflict in rat perorally; format: functional; details: po, read-out: MED
[5] = molecular target: T1, GABA-A receptor; anion channel (Rattus norvegicus) (UniProt O09028+P15431+P18506+P18508+P19969+P20236+P23574+P23576+P28471+P28473+P30191+P62813+P63079+P63138+Q91ZM7+Q9ES14); test: Ratio of the binding in the absence and presence of GABA was determined.; format: protein-complex assay
Mus musculus [6] = species on record: Mus musculus; test: Ratio of effective dose required for motor impairment in the horizontal screen to the inhibition of pentylenetetrazole (PTZ)-induced seizures in mice; format: functional
Rattus norvegicus [7] = test: In vivo minimum effective dose required for anticonflict effect in rat perorally; format: functional; details: for minimal effective dose: Rattus norvegicus, po, read-out: MED
Mus musculus [8] = test: In vivo effective dose required or inhibition of pentylenetetrazole (PTZ)-induced seizures in mice intraperitoneally; format: functional; details: ip
Mus musculus [9] = test: Effective dose required for motor impairment in the horizontal screen in mouse intraperitoneally; format: functional
Rattus norvegicus [10] = species on record: Rattus norvegicus; test: Ratio of minimum effective dose for potentiation of EtOH-induced sleep time to anticonflict effect in rat; format: functional
Mus musculus [11] = test: In vivo effective dose required for inhibition of pentylenetetrazole (PTZ)-induced seizures in mice perorally; format: functional
Rattus norvegicus [12] = test: In vivo minimum effective dose required for potentiation of EtOH-induced sleep time in rat; format: functional; details: for minimal effective dose: Rattus norvegicus, read-out: MED
Rattus norvegicus [13] = test: In vivo minimum effective dose required for anticonflict in rat intraperitoneally; format: functional; details: for minimal effective dose: Rattus norvegicus, ip, read-out: MED
[14] = molecular target: T1, GABA-A receptor; anion channel (Rattus norvegicus); test: Minimum effective dose required for anticonflict in rat intraperitoneally; format: functional
Mus musculus [15] = species on record: Mus musculus; test: Effective dose required for motor impairment in the horizontal screen in mouse perorally; format: functional
Rattus norvegicus [16] = species on record: Rattus norvegicus; test: animal or person; details: ip, read-out: MED
Description: Minimum effective dose required for anticonflict in rat after intraperitoneal administration of the compound

Mus musculus [17] = species on record: Mus musculus; test: animal or person; details: ip
Rattus norvegicus [18] = species on record: Rattus norvegicus; test: animal or person; details: po, read-out: MED
Description: Minimum effective dose required for anticonflict in rat after peroral administration of the compound

Mus musculus [19] = species on record: Mus musculus; test: animal or person; details: po
Mus musculus [20] = test: In vivo effective dose required for inhibition of pentylenetetrazole (PTZ)-induced seizures in mice intraperitoneally; format: functional
Mus musculus [21] = species on record: Mus musculus; test: Effective dose required for inhibition of pentylenetetrazole (PTZ)-induced seizures in mice perorally; value ranges from 3 to 30; format: functional; details: po
Mus musculus [22] = test: In vivo effective dose required in vivo for inhibition of pentylenetetrazole (PTZ)-induced seizures in mice perorally; format: functional; details: po
Mus musculus [23] = species on record: Mus musculus; test: Effective dose required for inhibition of pentylenetetrazole (PTZ)-induced seizures in mice perorally; value ranges from 0.3 to 3; format: functional; details: po
Rattus norvegicus [24] = species on record: Rattus norvegicus; test: Minimum effective dose required for anticonflict in rat perorally; value ranges from 1 to 3; format: functional; details: po, read-out: MED
[25] = Mus musculus, ip, read-out: ED50
[26] = Mus musculus, po, read-out: ED50

SMILES	ED50 (Mus musculus [1])	ED50 (Mus musculus [2])	IC50 [3]	minimal effective dose (Rattus norvegicus [4])	GABA shift [5]	MED [14]	further results
O=C1CCN2C(=C1C(=O)Nc1ccccc1F)N(CCn1ccnc1)c1cc(F)ccc12	10 mg/kg	1 mg/kg	1.6 nM	> 10 mg/kg	2.6	–	–
CCOCN1C2=C(C(=O)Nc3ccccc3F)C(=O)CCN2c2ccc(F)cc21	0.04 mg/kg	0.01 mg/kg	0.1 nM	0.4 mg/kg	1.2	10 mg/kg	Ratio (Mus musculus [6]): 675; minimal effective dose (Rattus norvegicus [7]): 0.4 mg/kg; ED50 (Mus musculus [8]): 0.01 mg/kg; ED50 (Mus musculus [9]; [25]): 0.3 mg/kg; Ratio (Rattus norvegicus [10]): 1; ED50 (Mus musculus [11]; po): 0.04 mg/kg; minimal effective dose (Rattus norvegicus [12]): 0.3 mg/kg; minimal effective dose (Rattus norvegicus [13]): 10 mg/kg; ED50 (Mus musculus [15]; [26]): 27 mg/kg
N=C(N)NCCN1C2=C(C(=O)Nc3ccccc3F)C(=O)CCN2c2ccc(F)cc21	> 30 mg/kg	> 1 mg/kg	5.6 nM	> 10 mg/kg	1.7	–	–
CN1C(=O)CN=C(c2ccccc2)c2cc(Cl)ccc21 [DIAZEPAM]	–	–	–	–	–	–	minimal effective dose (Rattus norvegicus [16]): 5 mg/kg; minimal effective dose (Rattus norvegicus [7]): 5 mg/kg; ED50 (Mus musculus [9]; [25]): 0.1 mg/kg; ED50 (Mus musculus [11]; po): 0.5 mg/kg; minimal effective dose (Rattus norvegicus [12]): 5 mg/kg; minimal effective dose (Rattus norvegicus [13]): 5 mg/kg; ED50 (Mus musculus [17]): 0.11 mg/kg; ED50 (Mus musculus [15]; [26]): 6.3 mg/kg; minimal effective dose (Rattus norvegicus [18]): > 10 mg/kg; ED50 (Mus musculus [19]): 0.5 mg/kg; ED50 (Mus musculus [20]; [25]): 0.3 mg/kg
CN(C)CCN1C2=C(C(=O)Nc3ccccc3F)C(=O)CCN2c2ccc(F)cc21	≤ 3 mg/kg	0.5 mg/kg	49.9 nM	3 mg/kg	2.7	< 10 mg/kg	–
CCOCN1C2=C(C(=O)Nc3c(F)cccc3F)C(=O)CCN2c2ccc(F)cc21	3 mg/kg	1 mg/kg	0.6 nM	> 10 mg/kg	1.6	> 10 mg/kg	–
CN(C)/C=N/CCN1C2=C(C(=O)Nc3ccccc3F)C(=O)CCN2c2ccc(F)cc21	30 mg/kg	≤ 1 mg/kg	35 nM	30 mg/kg	2.1	–	–
NCCN1C2=C(C(=O)Nc3ccccc3F)C(=O)CCN2c2ccc(F)cc21	10 mg/kg	0.3 mg/kg	5.1 nM	10 mg/kg	2.7	10 mg/kg	–
CN(C)c1ccc(CCN2C3=C(C(=O)Nc4ccccc4F)C(=O)CCN3c3ccc(F)cc32)cc1	< 30 mg/kg	1 mg/kg	8.5 nM	–	1.3	> 10 mg/kg	–
O=C1CCN2C(=C1C(=O)Nc1ccccc1F)N(CCN1CCOCC1)c1cc(F)ccc12	30 mg/kg	1 mg/kg	6.1 nM	–	2.2	> 10 mg/kg	–
O=C(Nc1ccccc1F)C1=C(O)CCn2c1nc1cc(F)ccc12	> 30 mg/kg	≤ 1 mg/kg	–	> 30 mg/kg	1.8	10 mg/kg	–
COCCNCCN1C2=C(C(=O)Nc3ccccc3F)C(=O)CCN2c2ccc(F)cc21	1 mg/kg	1 mg/kg	7.4 nM	10 mg/kg	1.8	10 mg/kg	–
CCOCN1C2=C(C(=O)Nc3ccc(OC(=O)OC)cc3F)C(=O)CCN2c2ccc(F)cc21	–	1 mg/kg	4.3 nM	1 mg/kg	3.2	–	ED50 (Mus musculus [21]): 3 mg/kg
O=C1CCN2C(=C1C(=O)Nc1ccccc1F)N(CCc1ccccn1)c1cc(F)ccc12	10 mg/kg	0.3 mg/kg	0.9 nM	> 10 mg/kg	2	10 mg/kg	–
CCOCN1C2=C(C(=O)Nc3ccc(F)cc3F)C(=O)CCN2c2ccc(F)cc21	< 3 mg/kg	≤ 1 mg/kg	1.2 nM	0.1 mg/kg	2	0.1 mg/kg	Ratio (Mus musculus [6]): 3; minimal effective dose (Rattus norvegicus [7]): 0.1 mg/kg; ED50 (Mus musculus [9]; [25]): < 1 mg/kg; Ratio (Rattus norvegicus [10]): 1; ED50 (Mus musculus [22]): < 3 mg/kg; minimal effective dose (Rattus norvegicus [12]): 0.1 mg/kg; minimal effective dose (Rattus norvegicus [13]): 0.1 mg/kg; ED50 (Mus musculus [15]; [26]): 10 mg/kg; ED50 (Mus musculus [20]; [25]): < 1 mg/kg
CCOCN1C2=C(C(=O)Nc3ccc(O)cc3F)C(=O)CCN2c2ccc(F)cc21	–	–	1.4 nM	–	2	1 mg/kg	ED50 (Mus musculus [23]): 0.3 mg/kg; minimal effective dose (Rattus norvegicus [24]): 1 mg/kg
CCOCN1C2=C(C(=O)Nc3ccc(OC)cc3F)C(=O)CCN2c2ccc(F)cc21	0.3 mg/kg	–	0.4 nM	0.03 mg/kg	2.2	0.1 mg/kg	–
CN(C)CCCN1C2=C(C(=O)Nc3ccccc3F)C(=O)CCN2c2ccc(F)cc21	30 mg/kg	3 mg/kg	3.3 nM	> 10 mg/kg	1.4	10 mg/kg	–

SMILES	ED50 (Mus musculus [1])	ED50 (Mus musculus [2])	IC50 [3]	minimal effective dose (Rattus norvegicus [4])	GABA shift [5]	MED [14]	further results
O=C1CCN2C(=C1C(=O)Nc1ccccc1F)N(CC1CCCO1)c1cc(F)ccc12 (stereo not drawn)	3 mg/kg	≤ 1 mg/kg	2.3 nM	3 mg/kg	2.2	–	–
CCOCN1C2=C(C(=O)Nc3sccc3Cl)C(=O)CCN2c2ccc(F)cc21	10 mg/kg	≤ 1 mg/kg	0.7 nM	> 10 mg/kg	1.6	–	–
CCOCN1C2=C(C(=O)Nc3ccsc3)C(=O)CCN2c2ccc(F)cc21	< 0.2 mg/kg	≤ 1 mg/kg	1 nM	0.3 mg/kg	1.7	–	–
CCOCN1C2=C(C(=O)Nc3ccccc3F)C(=O)CCN2c2ccccc21	3 mg/kg	> 1 mg/kg	151 nM	10 mg/kg	2	–	–
CCOCCN1C2=C(C(=O)Nc3ccccc3F)C(=O)CCN2c2ccc(F)cc21	0.3 mg/kg	≤ 1 mg/kg	0.5 nM	1 mg/kg	3.2	< 10 mg/kg	–
COC(=O)OCCN1C2=C(C(=O)Nc3ccccc3F)C(=O)CCN2c2ccc(F)cc21	3 mg/kg	≤ 1 mg/kg	0.3 nM	3 mg/kg	2.2	–	–
CCOCN1C2=C(C(=O)Nc3ccccc3F)C(=O)CCN2c2ccc(F)c(F)c21	< 3 mg/kg	< 1 mg/kg	0.5 nM	1 mg/kg	1.7	–	–
O=C1CCN2C(=C1C(=O)Nc1ccccc1F)N(CCCO)c1cc(F)ccc12	0.5 mg/kg	0.1 mg/kg	1.1 nM	10 mg/kg	1.8	10 mg/kg	–
CCOCN1C2=C(C(=O)Nc3ccc(C)s3)C(=O)CCN2c2ccc(F)cc21	0.5 mg/kg	≤ 1 mg/kg	0.7 nM	0.3 mg/kg	2.3	–	–
CCOCCCN1C2=C(C(=O)Nc3ccccc3F)C(=O)CCN2c2ccc(F)cc21	0.3 mg/kg	≤ 1 mg/kg	0.3 nM	1 mg/kg	1.6	–	–
CC(=O)OCCN1C2=C(C(=O)Nc3ccccc3F)C(=O)CCN2c2ccc(F)cc21	3 mg/kg	≤ 1 mg/kg	0.2 nM	3 mg/kg	1.2	–	–
COCCOCN1C2=C(C(=O)Nc3ccccc3F)C(=O)CCN2c2ccc(F)cc21	0.1 mg/kg	0.003 mg/kg	0.8 nM	3 mg/kg	2.2	< 10 mg/kg	Ratio (Mus musculus [6]): 300; MED (Rattus norvegicus [7]): 3; ED50 (Mus musculus [9]): 0.07; Ratio (Rattus norvegicus [10]): 1; ED50 (Mus musculus [11]): 0.1; MED (Rattus norvegicus [12]): 3; MED (Rattus norvegicus [13]): <=10; ED50 (Mus musculus [15]): 30; ED50 (Mus musculus [20]): 0.003
CCOCN1C2=C(C(=O)Nc3ccccc3F)C(=O)CCN2c2cc(F)cc(F)c21	–	–	13.3 nM	> 10 mg/kg	2.9	–	–
CCOCN1C2=C(C(=O)Nc3cccs3)C(=O)CCN2c2ccc(F)cc21	0.2 mg/kg	≤ 1 mg/kg	1 nM	3 mg/kg	2.1	–	–
O=C1CCN2C(=C1C(=O)Nc1ccccc1F)N(CCO)c1cc(F)ccc12	< 30 mg/kg	≤ 1 mg/kg	1.2 nM	> 10 mg/kg	2.7	10 mg/kg	–
CCOCN1C2=C(C(=O)Nc3ccccc3F)C(=O)CCN2c2cc3ccccc3cc21	> 30 mg/kg	< 1 mg/kg	2.2 nM	> 10 mg/kg	1.4	–	–
CCOCN1C2=C(C(=O)Nc3ccccc3F)C(=O)CCN2c2ccc(Cl)cc21	2 mg/kg	< 1 mg/kg	0.5 nM	> 10 mg/kg	2.8	–	–
CCOCN1C2=C(C(=O)Nc3ccccc3F)C(=O)CCN2c2c1ccc(F)c2F	> 30 mg/kg	1 mg/kg	126 nM	> 10 mg/kg	1.7	–	–
